Laboratory results: ChEMBL document CHEMBL1131494, “Novel 17-azolyl steroids, potent inhibitors of human cytochrome 17 alpha-hydroxylase-C17,20-lyase (P450(17) alpha): potential agents for the treatment of prostate cancer” (J Med Chem, 1998)

Key:
[1] = target: T1, Steroid 17-alpha-hydroxylase/17,20 lyase (Homo sapiens, UniProt P05093); test: Inhibition of human testicular microsomal cytochrome P450 17A1 at 150 nM; no inhibition
T1 sequence (P05093 whole entry): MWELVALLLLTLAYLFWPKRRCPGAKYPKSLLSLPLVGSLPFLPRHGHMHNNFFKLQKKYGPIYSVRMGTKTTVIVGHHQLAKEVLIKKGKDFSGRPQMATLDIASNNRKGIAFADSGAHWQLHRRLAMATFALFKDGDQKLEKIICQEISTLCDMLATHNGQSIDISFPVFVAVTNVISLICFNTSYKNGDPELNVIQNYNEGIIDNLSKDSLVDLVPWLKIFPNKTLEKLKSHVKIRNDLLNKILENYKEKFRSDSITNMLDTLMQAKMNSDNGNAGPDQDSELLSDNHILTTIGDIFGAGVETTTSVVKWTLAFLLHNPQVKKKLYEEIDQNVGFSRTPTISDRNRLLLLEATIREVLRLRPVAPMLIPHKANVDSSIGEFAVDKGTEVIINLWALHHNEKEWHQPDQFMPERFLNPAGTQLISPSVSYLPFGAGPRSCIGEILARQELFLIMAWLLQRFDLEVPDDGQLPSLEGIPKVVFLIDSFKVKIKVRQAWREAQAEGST

[2] = target: T2, Steroid 17-alpha-hydroxylase/17,20 lyase (Rattus norvegicus, UniProt P11715); test: Inhibition of rat Cytochrome P450 17A1
T2 sequence (P11715 whole entry): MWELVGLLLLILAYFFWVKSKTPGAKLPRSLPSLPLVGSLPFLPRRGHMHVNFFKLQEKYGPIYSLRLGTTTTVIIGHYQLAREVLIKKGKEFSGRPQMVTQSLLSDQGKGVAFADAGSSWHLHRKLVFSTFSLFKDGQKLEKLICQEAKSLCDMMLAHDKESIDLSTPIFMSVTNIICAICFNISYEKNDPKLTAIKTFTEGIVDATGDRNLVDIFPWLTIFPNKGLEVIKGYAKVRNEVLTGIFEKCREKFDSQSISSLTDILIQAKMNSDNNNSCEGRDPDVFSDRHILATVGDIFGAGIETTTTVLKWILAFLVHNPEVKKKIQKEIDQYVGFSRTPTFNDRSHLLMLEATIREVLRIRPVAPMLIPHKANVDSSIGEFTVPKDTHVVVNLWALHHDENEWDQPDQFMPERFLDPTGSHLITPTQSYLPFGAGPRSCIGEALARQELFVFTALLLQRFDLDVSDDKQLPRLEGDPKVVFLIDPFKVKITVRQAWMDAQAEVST

[3] = target: T1, Steroid 17-alpha-hydroxylase/17,20 lyase
Description: Binding affinity for Cytochrome P450 17A1 (17-alpha-hydroxypregnenolone Km=560 nM)

[4] = Inhibition of human steroid 5-alpha-reductase
[5] = target: T1, Steroid 17-alpha-hydroxylase/17,20 lyase; test: Inhibition of human testicular microsomal Cytochrome P450 17A1
[6] = target: T1, Steroid 17-alpha-hydroxylase/17,20 lyase; test: Inhibition of human testicular microsomal cytochrome P450 17A1 at 150 nM; NI = No inhibition; conditions: 0.15 µM
[7] = target: T2, Steroid 17-alpha-hydroxylase/17,20 lyase; test: Inhibition of rat cytochrome P450 17A1
[8] = target: T1, Steroid 17-alpha-hydroxylase/17,20 lyase; remark: listed apart in the source
[9] = target: T1, Steroid 17-alpha-hydroxylase/17,20 lyase; test: Inhibition of human testicular microsomal cytochrome P450 17A1 at 150 nM; NI = No inhibition; conditions: 0.15 µM

SMILES	IC50 [2] [nM]	Ki [3] [nM]	IC50 [4] [nM]	IC50 [5] [nM]	also measured
C[C@]12CC[C@H](O)CC1=CCC1C2CC[C@]2(C)C(n3nccn3)=CCC12 (stereo partly drawn)					IC50 [1]: Not Active
C[C@]12CCC(=O)C=C1CCC1C2CC[C@]2(C)C(n3cncn3)=CCC12 (stereo partly drawn)	11	41	152	55	
C[C@]12CC[C@H](O)CC1=CCC1C2CC[C@]2(C)C(n3cnnn3)=CCC12 (stereo partly drawn)					Inhibition [6]: Not Active
C[C@]12CCC(=O)C=C1CCC1C2CC[C@]2(C)C(n3ccnc3)=CCC12 (stereo partly drawn)	8	1.9	142	7	
C[C@]12CC[C@H](O)CC1=CC[C@@H]1[C@@H]2CC[C@]2(C)C(n3cncn3)=CC[C@@H]12		23	160000	90	IC50 [7]: 26 nM
C[C@]12CC[C@H](O)CC1=CCC1C2CC[C@]2(C)C(n3ccnc3)=CCC12 (stereo partly drawn)	9	1.2	400000	8	
C[C@]12CCC(=O)C=C1CCC1C2CC[C@]2(C)C(n3ccnn3)=CCC12 (stereo partly drawn)			198	19	IC50 [7]: 9 nM; Ki [8]: 8 nM
C[C@]12CC[C@H](O)CC1=CCC1C2CC[C@]2(C)C(n3ccnn3)=CCC12 (stereo partly drawn)	10	1.4	10000	13	
C[C@]12CC[C@H](O)CC1=CCC1C2CC[C@]2(C)C(n3ncnn3)=CCC12 (stereo partly drawn)					Inhibition [9]: Not Active
CC(C)(C)NC(=O)[C@H]1CC[C@H]2[C@@H]3CC[C@H]4NC(=O)C=C[C@]4(C)[C@H]3CC[C@]12C [FINASTERIDE]			33		
